Data taken from US11000033B2, “Ketone or oxime compound, and herbicide” (NISSAN CHEMICAL CORPORATION, priority 2014, dated 2021).

Assays:
soybean = assay: Test Example 5: effect on crop by foliage application, plastic box (symbol d); type: in vivo; details: 320 g/ha, 3 weeks after application
Method in brief: (§1)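 Foliage-application test plants come from spot sowing in sterilized diluvial soil under a soil layer of about 1.5 cm, grown at 25° C. to 30° C. in a greenhouse.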

Alopecurus myosuroides = assay: Test Example 5: herbicidal effect by foliage application, plastic box (symbol J); type: in vivo; details: 320 g/ha, 3 weeks after application
Method in brief: (§2)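 Leaf-applied emulsion, water-diluted to a preset herbicide dose, on two-week-old seedlings raised in a 25° C. to 30° C. greenhouse; injury rated at 3 weeks using earlier criteria.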

Amaranthus retroflexus = assay: Test Example 5: herbicidal effect by foliage application, plastic box (symbol N); type: in vivo; details: 320 g/ha, 3 weeks after application
Method in brief: as §2

Avena fatua = assay: Test Example 5: herbicidal effect by foliage application, plastic box (symbol I); type: in vivo; details: 320 g/ha, 3 weeks after application
Method in brief: as §2

corn = assay: Test Example 5: effect on crop by foliage application, plastic box (symbol c); type: in vivo; details: 320 g/ha, 3 weeks after application
Method in brief: as §1

Apera spica-venti = assay: Test Example 5: herbicidal effect by foliage application, plastic box (symbol L); type: in vivo; details: 320 g/ha, 3 weeks after application
Method in brief: as §2

Setaria viridis = assay: Test Example 5: herbicidal effect by foliage application, plastic box (symbol G); type: in vivo; details: 320 g/ha, 3 weeks after application
Method in brief: as §2

rapeseed = assay: Test Example 5: effect on crop by foliage application, plastic box (symbol g); type: in vivo; details: 320 g/ha, 3 weeks after application
Method in brief: as §1

Digitaria ciliaris = assay: Test Example 5: herbicidal effect by foliage application, plastic box (symbol F); type: in vivo; details: 320 g/ha, 3 weeks after application
Method in brief: as §2

Stellaria media = assay: Test Example 5: herbicidal effect by foliage application, plastic box (symbol P); type: in vivo; details: 320 g/ha, 3 weeks after application
Method in brief: as §2

Abutilon theophrasti = assay: Test Example 5: herbicidal effect by foliage application, plastic box (symbol M); type: in vivo; details: 320 g/ha, 3 weeks after application
Method in brief: as §2

beet = assay: Test Example 5: effect on crop by foliage application, plastic box (symbol f); type: in vivo; details: 320 g/ha, 3 weeks after application
Method in brief: as §1

[1] = tested on: Echinochloa crus-galli var. crus-galli; assay: Test Example 5: herbicidal effect by foliage application, plastic box (symbol H); type: in vivo; details: 320 g/ha, 3 weeks after application
Method in brief: as §2

wheat = assay: Test Example 5: effect on crop by foliage application, plastic box (symbol e); type: in vivo; details: 320 g/ha, 3 weeks after application
Method in brief: as §1

Veronica persica = assay: Test Example 5: herbicidal effect by foliage application, plastic box (symbol R); type: in vivo; details: 320 g/ha, 3 weeks after application
Method in brief: as §2

Lolium multiflorum Lam. = assay: Test Example 5: herbicidal effect by foliage application, plastic box (symbol K); type: in vivo; details: 320 g/ha, 3 weeks after application
Method in brief: as §2

rice plant = assay: Test Example 5: effect on crop by foliage application, plastic box (symbol b); type: in vivo; details: 320 g/ha, 3 weeks after application
Method in brief: as §1

Row | melting point [°C] | SMILES | d: soybean, effect on crop grade (soybean) | J: Alopecurus myosuroides, herbicidal effect grade (Alopecurus myosuroides) | N: Amaranthus retroflexus, herbicidal effect grade (Amaranthus retroflexus) | I: Avena fatua, herbicidal effect grade (Avena fatua) | c: corn, effect on crop grade (corn) | L: Apera spica-venti, herbicidal effect grade (Apera spica-venti) | G: Setaria viridis, herbicidal effect grade (Setaria viridis) | g: rapeseed, effect on crop grade (rapeseed) | F: Digitaria ciliaris, herbicidal effect grade (Digitaria ciliaris) | P: Stellaria media, herbicidal effect grade (Stellaria media) | M: Abutilon theophrasti, herbicidal effect grade (Abutilon theophrasti) | f: beet, effect on crop grade (beet) | H: Echinochloa crus-galli var. crus-galli, herbicidal effect grade [1] | e: wheat, effect on crop grade (wheat) | R: Veronica persica, herbicidal effect grade (Veronica persica) | K: Lolium multiflorum Lam., herbicidal effect grade (Lolium multiflorum Lam.) | b: directly sowed rice plant, effect on crop grade (rice plant)
1 | 181 to 183 | CON=C(C)CC1CC(O)=C(c2c(C)cc([N+](=O)[O-])cc2C)C1=O (stereo not shown) [6-032] | 0 (Herbicidal ratio of 5% or lower (almost no effect)) | 0 (Herbicidal ratio of 5% or lower (almost no effect)) | 0 (Herbicidal ratio of 5% or lower (almost no effect)) | 0 (Herbicidal ratio of 5% or lower (almost no effect)) | 0 (Herbicidal ratio of 5% or lower (almost no effect)) | 0 (Herbicidal ratio of 5% or lower (almost no effect)) | 3 (Herbicidal ratio of 40% or higher and lower than 70%) | 0 (Herbicidal ratio of 5% or lower (almost no effect)) | 4 (Herbicidal ratio of 70% or higher and lower than 90%) | 0 (Herbicidal ratio of 5% or lower (almost no effect)) | 0 (Herbicidal ratio of 5% or lower (almost no effect)) | 0 (Herbicidal ratio of 5% or lower (almost no effect)) | 4 (Herbicidal ratio of 70% or higher and lower than 90%) | 0 (Herbicidal ratio of 5% or lower (almost no effect)) | 0 (Herbicidal ratio of 5% or lower (almost no effect)) | 0 (Herbicidal ratio of 5% or lower (almost no effect)) | 0 (Herbicidal ratio of 5% or lower (almost no effect))
2 | 117 to 119 | CON=C(C)CC1CC(OC)=C(c2c(C)cc(OCC(F)(F)F)cc2C)C1=O (stereo not shown) [6-042] |  |  |  |  |  |  |  |  |  |  |  |  |  |  |  |  | 
